Experimental data from US20250066371A1, “FLUOROALKOXYALKYLENE-DIHYDROIMIDAZO[5,1-D]TETRAZINONE COMPOUNDS AND RELATED COMPOUNDS AND THEIR USE IN TREATING MEDICAL CONDITIONS” (priority 2023, published 2025).
Where a name gives a salt, the structure may show the parent alone. Read-outs that look alike come from different tables or passages of the source.

Key:
Type in all cases: cell-based
[1] = tested on: LN229 gliobastoma cells MGMT+/MMR+; test: Anti-cancer assay, isogenic LN229 cells, nuclei count (Example 43); details: Homo sapiens, read-out: MGMT+ MMR+ Activity
Excerpt: (§1) Cytotoxicity of the compounds may be measured in short-term cell viability assays against four isogenic LN229 glioblastoma cell lines engineered to be proficient or deficient in MGMT and/or MMR activity by using short hairpin RNAs (shRNAs) targeting MSH2. This approach allows for determination of the relationship between MGMT status, MMR status, and compound activity. LN229 cells are maintained in Dulbecco's Modified Eagle Medium (DMEM) supplemented with 10% fetal bovine serum, 1% Penicillin/Streptomycin, and 0.1% Fungin. DAY 0: Cells are plated into sterile 96-well plates (Corning Costar 96-well) at a concentration of 500 cells/well using a Multichannel pipettor. Then, assay plates are incubated overnight in a 37° C. 5% CO2 incubator. DAY 1: Compounds are prepared as 50 mM stocks in dimethyl sulfoxide (DMSO) and stored protected from light at room temperature (RT) until use. Prior to compound addition, a two-fold serial dilution of compound stock solutions is performed in DMSO from 30 mM to 0.117 mM in a 96-well Master plate. Vehicle control wells contain DMSO. 97 μL of media is added to each well of a new 96-well plate (Daughter plate) and 3 μL of drug solution from Master plate is added to corresponding wells in the Daughter plate resulting in a 3× plate. Three replicate dilution curves of each compound are run on each assay plate. The final concentration of compounds ranges from 300 μM to 1.171 μM (9-point, 2-fold dilution dose response curve), and the final DMSO concentration is 1%.
(§2) Assay plates are incubated for 120 hours at 37° C. in a humidified 5% CO2 incubator. DAY 5: Following incubation, cells are fixed with 4% paraformaldehyde and stained with Hoechst dye for nuclei visualization. Fixation, staining and washing is performed by using a Thermo Scientific Multidrop Combi. Images are acquired on a BioTek Cytation 5 Cell Imaging Multimode Reader and quantified using Cell Profiler image analysis software. Raw cell count data for test compounds are normalized to percent viability relative to the DMSO vehicle control.
(§3) Isogenic LN229 gliobastoma cells were maintained in Dulbecco's Modified Eagle Medium (DMEM) supplemented with 10% fetal bovine serum, 1% Penicillin/Streptomycin, and 0.1% Fungin. DAY 0: Cells were plated into sterile 96-well plates (Corning Costar 96-well) at a concentration of 500 cells/well using a Multichannel pipettor. Then, assay plates were incubated overnight in a 37° C. 5% CO2 incubator. DAY 1: Compounds were prepared as 50 mM stocks in dimethyl sulfoxide (DMSO) and stored protected from light at room temperature (RT) until use. Prior to compound addition, a two-fold serial dilution of compound stock solutions was performed in DMSO from 30 mM to 0.117 mM in a 96-well Master plate. Vehicle control wells contained DMSO. 97 μL of media was added to each well of a new 96-well plate (Daughter plate) and 3 μL of drug solution from Master plate was added to corresponding wells in the Daughter plate resulting in a 3× plate. Three replicate dilution curves of each compound were run on each assay plate. The final concentration of compounds ranged from 300 μM to 1.171 μM (9-point, 2-fold dilution dose response curve), and the final DMSO concentration was 1%.
as §2, with “plates were” for “plates are”, “cells were” for “cells are”, “washing was” for “washing is”, “Images were” for “Images are”, “compounds were” for “compounds are”

[2] = tested on: LN229 gliobastoma cells MGMT+/MMR−; test: as above; details: Homo sapiens, read-out: MGMT+ MMR− Activity
Excerpt: as §1, §2, §3
as §2, with “plates were” for “plates are”, “cells were” for “cells are”, “washing was” for “washing is”, “Images were” for “Images are”, “compounds were” for “compounds are”

[3] = tested on: LN229 gliobastoma cells MGMT−/MMR−; test: Anti-cancer assay, isogenic LN229 cells, nuclei count (Examples 43, 46); details: Homo sapiens, read-out: MGMT− MMR− Activity
Excerpt: as §1, §2, §3
as §2, with “plates were” for “plates are”, “cells were” for “cells are”, “washing was” for “washing is”, “Images were” for “Images are”, “compounds were” for “compounds are”, “control. […]” for “control.”

[4] = tested on: LN229 gliobastoma cells MGMT−/MMR+; test: as above; details: Homo sapiens, read-out: MGMT− MMR+ Activity
Excerpt: as §1, §2, §3
as §2, with “plates were” for “plates are”, “cells were” for “cells are”, “washing was” for “washing is”, “Images were” for “Images are”, “compounds were” for “compounds are”, “control. […]” for “control.”

[5] = LN-229, LN229 MGMT+/MMR+, 120 hours
[6] = LN-229, LN229 MGMT+/MMR−, 120 hours
[7] = LN-229, LN229 MGMT−/MMR−, 120 hours
[8] = LN-229, LN229 MGMT−/MMR+, 120 hours

SMILES	IC50 [1, 5] [µM]	IC50 [2, 6] [µM]	IC50 [3, 7] [µM]	IC50 [4, 8] [µM]	IC50 ([1]; LN-229, 120 h) [µM]	IC50 ([2]; LN-229, 120 h) [µM]	IC50 ([3]; LN-229, 120 h) [µM]	IC50 ([4]; LN-229, 120 h) [µM]
CN(C)CCN(C)C(=O)c1ncn2c(=O)n(CCOC(F)(F)F)nnc12 [Compound I-11, N-(2-(Dimethylamino)ethyl)-N-methyl-4-oxo-3-(2-(trifluoromethoxy)ethyl)-3,4-dihydroimidazo[5,1-d][1,2,3,5]tetrazine-8-carboxamide]	–	–	–	–	50 to 100	50 to 100	< 20	< 20
N=C(N)c1ncn2c(=O)n(CCOC(F)(F)F)nnc12 [Compound I-34, 4-Oxo-3-(2-(trifluoromethoxy)ethyl)-3,4-dihydroimidazo[5,1-d][1,2,3,5]tetrazine-8-carboximidamide]	50 to 100	50 to 100	< 20	< 20	–	–	–	–
O=C(NC1CCCC1)c1ncn2c(=O)n(CCOC(F)(F)F)nnc12 [Compound I-5, N-Cyclopentyl-4-oxo-3-(2-(trifluoromethoxy)ethyl)-3,4-dihydroimidazo[5,1-d][1,2,3,5]tetrazine-8-carboxamide]	> 100	> 100	20 to 50	50 to 100	–	–	–	–
O=NN(CCOC(F)(F)F)C(=O)NC1CCCCC1 [IV-1, 3-Cyclohexyl-1-nitroso-1-(2-(trifluoromethoxy)ethyl)urea]	–	–	–	–	20 to 50	20 to 50	20 to 50	20 to 50
CCNC(=O)c1ncn2c(=O)n(CCOC(F)(F)F)nnc12 [Compound I-3, N-Ethyl-4-oxo-3-(2-(trifluoromethoxy)ethyl)-3,4-dihydroimidazo[5,1-d][1,2,3,5]tetrazine-8-carboxamide]	–	–	–	–	> 100	> 100	50 to 100	50 to 100
CCOC(=O)c1ncn2c(=O)n(CCOC(F)(F)F)nnc12 [Compound I-30, Ethyl 4-Oxo-3-(2-(trifluoromethoxy)ethyl)-3,4-dihydroimidazo[5,1-d][1,2,3,5]tetrazine-8-carboxylate]	–	–	–	–	> 100	> 100	< 20	> 100
CN1CCN(C(=O)c2ncn3c(=O)n(CCOC(F)(F)F)nnc23)CC1 [Compound I-10, 8-(4-Methylpiperazine-1-carbonyl)-3-(2-(trifluoromethoxy)ethyl)imidazo[5,1-d][1,2,3,5]tetrazin-4(3H)-one]	50 to 100	50 to 100	20 to 50	20 to 50	–	–	–	–
[2H]C([2H])(OC(F)(F)F)C([2H])([2H])n1nnc2c(C(N)=O)ncn2c1=O [Compound I-29, 4-Oxo-3-(2-(trifluoromethoxy)ethyl-1,1,2,2-d4)-3,4-dihydroimidazo[5,1-d][1,2,3,5]tetrazine-8-carboxamide]	> 100	> 100	< 20	20 to 50	–	–	–	–
O=NN(CCOC(F)(F)F)C(=O)NCCOC(F)(F)F [IV-2, 1-Nitroso-1,3-bis(2-(trifluoromethoxy)ethyl)urea]	–	–	–	–	> 100	> 100	20 to 50	50 to 100
O=C(Nc1ccccc1)c1ncn2c(=O)n(CCOC(F)(F)F)nnc12 [Compound I-9, 4-Oxo-N-phenyl-3-(2-(trifluoromethoxy)ethyl)-3,4-dihydroimidazo[5,1-d][1,2,3,5]tetrazine-8-carboxamide]	–	–	–	–	50 to 100	> 100	< 20	20 to 50
O=C(NC1CC1)c1ncn2c(=O)n(CCOC(F)(F)F)nnc12 [Compound I-6, N-Cyclopropyl-4-oxo-3-(2-(trifluoromethoxy)ethyl)-3,4-dihydroimidazo[5,1-d][1,2,3,5]tetrazine-8-carboxamide]	20 to 50	< 20	20 to 50	< 20	–	–	–	–

Further lines, with some results ahead:

IC50 [1, 5] [µM]	IC50 [2, 6] [µM]	IC50 [3, 7] [µM]	IC50 [4, 8] [µM]	SMILES	IC50 ([1]; LN-229, 120 h) [µM]	IC50 ([2]; LN-229, 120 h) [µM]	IC50 ([3]; LN-229, 120 h) [µM]	IC50 ([4]; LN-229, 120 h) [µM]
< 20	20 to 50	< 20	< 20	O=c1n(CCOC(F)(F)F)nnc2c(Cl)ncn12 [Compound I-39, 8-Chloro-3-(2-(trifluoromethoxy)ethyl)imidazo[5,1-d][1,2,3,5]tetrazin-4(3H)-one]	–	–	–	–
> 100	> 100	< 20	20 to 50	NC(=S)c1ncn2c(=O)n(CCOC(F)(F)F)nnc12 [Compound I-31, 4-Oxo-3-(2-(trifluoromethoxy)ethyl)-3,4-dihydroimidazo[5,1-d][1,2,3,5]tetrazine-8-carbothioamide]	–	–	–	–
< 20	50 to 100	> 100	< 20	O=c1n(CCOC(F)(F)F)nnc2c(-c3nc4ccccc4[nH]3)ncn12 [II-1, 8-(1H-Benzo[d]imidazol-2-yl)-3-(2-(trifluoromethoxy)ethyl)imidazo[5,1-d][1,2,3,5]tetrazin-4(3H)-one]	–	–	–	–
> 100	> 100	> 100	> 100	NC(=O)c1ncn2c(=O)n(CCCOCC(F)(F)F)nnc12 [Compound I-22]	–	–	–	–
> 100	> 100	< 20	20 to 50	CNC(=O)c1ncn2c(=O)n(CCOC(F)(F)F)nnc12 [Compound I-26]	–	–	–	–
< 20	20 to 50	20 to 50	50 to 100	O=c1n(CCOC(F)(F)F)nnc2c(-c3ncc(-c4ccccc4)o3)ncn12 [II-2, 8-(5-Phenyloxazol-2-yl)-3-(2-(trifluoromethoxy)ethyl)imidazo[5,1-d][1,2,3,5]tetrazin-4(3H)-one]	–	–	–	–
> 100	> 100	20 to 50	50 to 100	O=C(Nc1ccccn1)c1ncn2c(=O)n(CCOC(F)(F)F)nnc12 [Compound I-8, 4-Oxo-N-(2-pyridyl)-3-[2-(trifluoromethoxy)ethyl]imidazo[5,1-d][1,2,3,5]tetrazine-8-carboxamide]	–	–	–	–
< 20	< 20	< 20	20 to 50	Cc1cnc(-c2ncn3c(=O)n(CCOC(F)(F)F)nnc23)s1 [II-6, 8-(5-Methylthiazol-2-yl)-3-(2-(trifluoromethoxy)ethyl)imidazo[5,1-d][1,2,3,5]tetrazin-4(3H)-one]	–	–	–	–
< 20	< 20	< 20	20 to 50	O=c1n(CCOC(F)(F)F)nnc2c(-c3nc4ccccc4o3)ncn12 [II-4, 8-(benzo[d]oxazol-2-yl)-3-(2-(trifluoromethoxy)ethyl) imidazo[5,1-d][1,2,3,5]tetrazin-4(3H)-one]	–	–	–	–
> 100	> 100	20 to 50	50 to 100	NCCNC(=O)c1ncn2c(=O)n(CCOC(F)(F)F)nnc12 [Compound I-12, Hydrochloride Salt of N-(2-Aminoethyl)-4-oxo-3-(2-(trifluoromethoxy)ethyl)-3,4-dihydroimidazo[5,1-d][1,2,3,5]tetrazine-8-carboxamide]	–	–	–	–
